Data as given in patent US8455510B2.

Assays:
[1] = test system: DNFB-induced delayed type hypersensitivity reaction; test: DNFB-induced delayed type hypersensitivity reaction in mice; assay type: in vivo, BALB/c mice; settings: 1.5 mg/kg/d, intraperitoneal injection; model control 0.175 mm
Method: The delayed type hypersensitivity (DTH) reaction in mice was induced by DNFB to evaluate the inhibition effect of the compound on DTH in vivo. […] Preparation method: the compound was dissolved in anhydrous alcohol to prepare a stock solution (50 mg/ml), which was diluted to the desired concentration when use by using a solution of 5% PEG400, 5% Tween-80 in sterile water as a solvent. […] DNFB combined with dermal protein to form a complete antigen after sensitizing on feet of mice. One week later, mice were attacked by DNFB on ears to induce a local delayed allergic reaction, i.e., the delayed type hypersensitivity reaction to cause ear swelling, while the delayed type hypersensitivity reaction would not be observed on the ear which had not been attacked. Therefore, the ear swelling can reflect the level of the delayed type hypersensitivity reaction in mice induced by DNFB. (1) 20 μl of 0.5% DNFB solution in a mixture of acetone and olive oil (4:1) as a solvent was applied on both hind legs of mice for sensitization. […] (4) Thickness of the left and right ears of the mice was measured by a micrometer screw gauge, and the swelling was calculated by subtracting the thickness of the left ear from thickness of the right ear.

[2] = test system: human prostate cancer PC-3 xenograft; test: PC-3 xenograft on nude mice; settings: 1-5 × 3.5 w; for TV (mm3) d0: baseline
FKBP-12 protein = target: T1, FKBP-12 protein (Homo sapiens, UniProt P62942); test: SPR (surface plasma resonance) binding with FKBP-12
T1 construct: purchased sigma Co
Method: (1) FKBP-12 protein was purchased from sigma Co.
(2) HBS-EP buffer solution (10 mM Hepes, 150 mM NaCl, 3.4 mM EDTA, 0.005% (v/v) surfactant P20, pH 7.4)
(3) Activating reagents EDC and NHS, and blocking reagents Ethanolamine, etc., were purchased from BIACORE AB Co. (Uppsala, Sweden).
(4) BIAcore 3000 and CM5 chip were purchased from BIACORE AB Co. (Uppsala, Sweden).
(2) […] was coupled to the FC2 channel on CM5 chip by using the Wizard for amino-coupling in Biacore 3000 controlling soft. 3.3 g/L of FKBP-12 protein was diluted with 10 mM NaAC (pH 4.6) to 66 μg/ml. The surface of the chip was washed by injecting a mixture of 0.1M1-(3-dimethylaminopropyl)-3-ethylcarbodiimide hydrochloride (EDCI) and 0.1M N-hydroxysuccinimide (NHS) (1:1) at a flow rate of 20 μL/min for 7 min. After that, the protein solution was injected, and then a 1M cholamine (pH 8.5) solution was fed for 7 min to block the activated surface of the chip. Preliminary screening and pharmacokinetic tests on the compounds
The binding abilities of small molecular compounds with FKBP-12 protein were evaluated by SPR (surface plasma resonance). The stock solution of the compound was 10 mM, and was diluted by HBS-EP buffer solution at given ratios. Pharmacokinetic tests were carried out by the Wizard for kinetic analysis in Biacore 3000 controlling soft. The resulted data were fitted by 1:1 Langmuir binding model or stability model in Biacore 3000 analytical soft to obtain the exact kinetic and thermodynamic constants.

[3] = test system: acute graft-versus-host disease (aGVHD); test: Acute graft-versus-host disease (aGVHD) mouse model; assay type: in vivo, C57B/6 mice; settings: 1.5 mg/kg/d, intraperitoneal injection, FIG. 15
Method: Donator: BABL/C mice; acceptor: C57B/6 mice.
C57B/6(H-2^b) mice, female, 7 weeks old, were used as the acceptor mice to receive 8.5 Gy of total body irradiation in a Gammacell.
After the acceptor mice received irradiation for 4 to 6 hours, the heterogenetic bone marrow transplantation was carried out.
BABL/C(H-2^d) mice, female, 4 weeks old were used as the donator mice. The bone marrow cells in long bone of the mice limbs and the spleen lymphocytes were collected and suspended in a PBS buffer solution respectively by adjusting the cell concentration to 1×10^8.
The two kinds of cells were mixed equivalently to prepare a mixed cell suspension. Each acceptor mouse was intravenously injected with 0.5 ml of the suspension.
Mice were randomly divided into 3 groups with 10 mice in each group. Mice were administered once daily from the first day when the bone marrow transplantation was carried out.
Y-31 group (1.5 mg/kg/d, intraperitoneal injection)
(1) Body weight: weighted once daily;
(2) The survival time of the mice after BMT was recorded.

[4] = test system: bovine type II collagen-induced arthritis; test: Bovine type II collagen-induced arthritis; assay type: in vivo, DBA/1 mice; settings: 1 mg/kg, from 14th day after attack, 3 weeks, FIG. 16, P<0.05

T1 sequence (P62942 whole entry, species assumed): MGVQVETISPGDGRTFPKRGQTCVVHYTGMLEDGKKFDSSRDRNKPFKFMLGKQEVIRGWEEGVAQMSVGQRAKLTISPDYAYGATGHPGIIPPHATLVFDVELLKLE

## CO[C@H]1C[C@@H]2CC[C@@H](C)[C@@](O)(O2)C(=O)C(=O)N2CCCC[C@H]2C(=O)O[C@H]([C@H](C)C[C@@H]2CC[C@@H](O)[C@H](OC)C2)CC(=O)[C@H](C)/C=C(\C)[C@@H](O)[C@@H](OC)C(=O)[C@H](C)C[C@H](C)/C=C/C=C/C=C/1C [Rapamycin]
[1]
  average ear swelling degree: 0.076 mm
[2]; Table 3, 2.5 mg/kg p.o
  Body Weight (g) end: 21.8 g
  Body Weight (g) start: 19.8 g
  RTV: 3.03 ± 1.5
  T/C (%): 46.5%
  TV (mm3) d21: 277 ± 98 mm3
  TV (mm3) d0: 100 ± 39 mm3
[2]; Table 3, 5 mg/kg p.o
  Body Weight (g) end: 22.2 g
  Body Weight (g) start: 22.2 g
  RTV: 2.0 ± 1.2
  T/C (%): 30.9%
  TV (mm3) d21: 170 ± 88 mm3
  TV (mm3) d0: 96 ± 38 mm3

## CO[C@H]1C[C@@H]2CC[C@@H](C)[C@@](O)(O2)C(=O)C(=O)N2CCCC[C@H]2C(=O)O[C@H]([C@H](C)C[C@@H]2CC[C@@H](OC(=O)OCC(O)CO)[C@H](OC)C2)CC(=O)[C@H](C)/C=C(\C)[C@@H](O)[C@@H](OC)C(=O)[C@H](C)C[C@H](C)/C=C/C=C/C=C/1C (some centres unmarked) [Y31]
FKBP-12 protein
  binding with FKBP12: concentration-dependently bind
FKBP-12 protein; FKBP12
  Kd: 0.1 nM
  koff: 0.11 × 10^−3 S^−1
  kon: 1.05 × 10^6 M^−1S^−1
FKBP-12 protein; at the same concentration
  R^U (Response Unit) compared with rapamycin: higher
FKBP-12 protein; compared with rapamycin
  concentration to reach the saturation state for the binding with FKBP12: lower than that for rapamycin
[1]
  average ear swelling degree: 0.129 mm
[3]
  effect on the survival rate of the aGVHD mice: markedly increase the survival rate
  effect on the weight loss caused by aGVHD: significantly alleviate the weight loss
[4]
  effect on the severe degree of CIA (arthritis score): significantly reduce the severe degree of CIA
